Data as given in US6492344B1, “Syndecan enhancer element and syndecan stimulation of cellular differentiation” (Biotie Therapies Corp., priority 1993, dated 2002).
Entries after “also recorded” stand apart in the source; their conditions may differ.

Experiments:
[1] = test system: FGF-inducible Response Element (FiRE); assay: pFiRE CAT reporter activation by growth factors in 3T3NIH cells; assay type: cell-based, mouse; conditions: pFiRE transfected 3T3NIH cells; 10 ng/ml growth factor (2 ng/ml TGF-β) or 5% FCS, 2 days
Experimental: Each of these plasmids was transiently transfected into 3T3NIH cells, using the calcium phosphate precipitation method (Chen and Okayama, Mol. Cell Biol. 7:2745-2752 (1987)) as follows. For transient transfections NIH3T3 cells were plated at equal density on six-well plates (Falcon) two days before transfection. Plasmid DNA was transfected into cells by calcium phosphate method (Chen and Okayama, Mol. Cell Biol. 7:2745-2752 (1987)). A β-galactosidase expressing plasmid (pSV-β-galactosidase, Promega) was co-transfected with CAT constructs to monitor transfection efficiencies. Three parallel transfections were used in every assay. Directly after transfection growth factors were added, media change the next day and cells were harvested after two days. CAT activities were measured by liquid scintillation and β-galactosidase activities spectrophotometrically at 420 nm as described by Vihinen et al., J. Biol. Chem 268:17261-17269 (1993)). As a control, other samples of the cells transfected with each plasmid were treated with buffer without FGF-2 for the same time periods.
For the gene expression analysis the fragments of the syndecan-1 upstream region were subcloned from mouse genomic clones into the XbaI site of the pCATProm vector in which a mouse syndecan-1 promoter region (−1310 to +140) was fused to the CAT reporter gene (Vihinen et al., J. Biol. Chem. 271:12532-12541 (1996)). The pX-HIIICAT plasmid was prepared by cloning HindIII-XhoI promoter fragment (−2400 to +140 bp) into the promoterless pCAT basic vector (Promega). For pXSp1 and 2 plasmids, SphI fragments −11.4 to −10.5 kb and −10.5 to −9.4 kb, respectively) were deleted from pXb6CAT (−11.6 to −9.4 kb). Constructs pXS2, pXB3 and pXX1 were generated by ligating SphI-EarI/blunt (−10.5 to −10.1 kb), EarI/blunt fragment (−10.1 to −9.8 kb) and EarI/blunt-XbaI (−9.8 to −9.4 kb) from pXSpI into SphI-AccI/blunt, AccI/blunt or XbaI-SphIlblunt sites, respectively, into the pCATProm vector. Blunt ended fragments were made by T4 polymerase (Promega). For FiRE and FiREREV a PstI-StyI/blunt fragment was subcloned into PstI-EcoRV or PstI-SmaI sites of the pBluescript vector and then transfected to Xba-SphI sites in pCATProm vector. These constructs were then used to transient transfect NIH3T3 cells as described supra, and CAT activity was measured.
Effect of Various Growth Factors on Enhancer Activation in NIH3T3 Cells. Plasmid pFiRE was transfected into 3T3NIH cells as described, supra. The cells were starved in DMEM medium supplemented with 5% fetal calf serum to about 70% confluence. Fetal calf serum was then replaced with 2% carboxy-methyl-Sephadex eluted fetal calf serum (CMS) 12 hrs before adding the growth factors. Various growth factors in the same medium, 5% fetal calf serum (FCS) supplemented medium or a control containing the medium, without any added growth factors were incubated with the transfected cells for 2 days, and CAT activity was measured. The effect of 10 ng/ml of FGF-2, FGF-1, FGF-4, FGF-7 (KGF), EGF, IGF1, TGFα, IFNγ, and PDGF and 2 ng/ml TGF-β were tested. The human recombinant growth factors were purchased from Peprotech (FGF-1, -2, and -7), Boehringer (FGF-2) or from Calbiochem (PDGF) TGF-β was purchased from Sigma. The effect of the added growth factors and FCS on DNA synthesis was also tested by a 125-IdU incorporation assay. […] Radioactivity was measured using a gamma counter (Wallac).

3T3NIH cells = assay: 125-IdU incorporation (DNA synthesis) assay in 3T3NIH cells; assay type: cell-based, mouse; conditions: pFiRE transfected 3T3NIH cells; 10 ng/ml growth factor (2 ng/ml TGF-β) or 5% FCS
Source text: Effect of Various Growth Factors on Enhancer Activation in NIH3T3 Cells. Plasmid pFiRE was transfected into 3T3NIH cells as described, supra. The cells were starved in DMEM medium supplemented with 5% fetal calf serum to about 70% confluence. Fetal calf serum was then replaced with 2% carboxy-methyl-Sephadex eluted fetal calf serum (CMS) 12 hrs before adding the growth factors. Various growth factors in the same medium, 5% fetal calf serum (FCS) supplemented medium or a control containing the medium, without any added growth factors were incubated with the transfected cells for 2 days, and CAT activity was measured. The effect of 10 ng/ml of FGF-2, FGF-1, FGF-4, FGF-7 (KGF), EGF, IGF1, TGFα, IFNγ, and PDGF and 2 ng/ml TGF-β were tested. The human recombinant growth factors were purchased from Peprotech (FGF-1, -2, and -7), Boehringer (FGF-2) or from Calbiochem (PDGF) TGF-β was purchased from Sigma. The effect of the added growth factors and FCS on DNA synthesis was also tested by a 125-IdU incorporation assay. This cell proliferation assay was carried out by incubating cells for 4-6 hrs with 0.25 μCi/ml 5-[^125I]iodo-2′-deoxyuridine (IdU, Amersham), washed several times with PBS and solubilized in 1 M NaOH. Radioactivity was measured using a gamma counter (Wallac).

[2] = test system: FGF-inducible Response Element (FiRE); assay: FiRE CAT assay with AP-1 activating agents in stable 3T3NIH cells; assay type: cell-based, mouse; conditions: minimal promoter, agents known to activate AP-1
Experimental: FIG. 24. […] Different agents known to induce fos-jun complexes and activate AP-1 driven promoters, were tested for FiRE activation in CAT assay with the minimal promoter transferred in stable 3T3NIH cells in the presence of protein kinase C activator (TPA, 10 mm), protein phosphatase 1 and 2 inhibitors (DA and calycalin A), a cAMP activator (forskolin), or a tyrosine phosphatase inhibitor (orthovanadate).
Agents Activating AP-1 Are Not Sufficient for FiRE Activation. Since FiRE contains AP-1 transcription factors, whose activation is well characterized, we tested chemicals known to cause AP-1 dependent gene activation. These included the protein kinase C (PKC) activator 12-O-tetradecanoylphorpol-13-acetate (TPA), protein-phosphate-1 and -2 inhibitors okadaic acid and calyculin A, cAMP activator forskolin and tyrosine kinase phosphatase inhibitor orthovanadate (FIG. 24a).

[3] = test system: FGF-inducible Response Element (FiRE); assay: FiRE / Syn Prom CAT reporter in MCA3D keratinocytes; assay type: cell-based; conditions: MCA3D mouse keratinocytes transfected with FiRE construct
Experimental: The cells used for proximal promoter constructs were 3T3 NIH, S115 (either hormone-treated or not) and nMuMG cells. For enhancer constructs we used 3T3 NIH cells grown in 2% CMS medium and MCA 3D cells grown in Ham's medium. 3T3 NIH cells were also used to test the effect of growth factors in 2% CMS medium with 10 ng/ml FGF-2 and 2ng/ml TGFβ-1. MCA 3D cells were used to test the effect of 10 ng/ml KGF.
FiRE is Induced Selectively by FGF-7 in Keratinocytes. The ability of FiRE to enhance transcription was tested in the mouse keratinocyte cell line MCA3D (Kuliz-Martin et al., Carcinogenesis 4:1367-1377 (1983)). MCA3D cells were transfected as described supra for mouse NIH3T3 cells. Following transfection, the cells were treated with fetal calf serum, PDGF, FGF-1, FGF-2, and FGF-7 as described supra for the NIH3T3 cells.

syndecan-1 gene = assay: Syndecan-1 mRNA quantification in 3T3NIH cells exposed to FGF-2; assay type: cell-based, mouse; conditions: TGF-β alone
Source text: Northern Blot—RNA was isolated from 3T3 and NMuMG cells using 4 M guanidine isothiocyanate and CsCl density centrifugation (Chirgwin et al., Biochemistry 18:5294-5299 (1979)). RNA samples were size-separated on a 1% agarose formaldehyde gel, transferred to a GeneScreen Plus™ membrane (New England Nuclear) and hybridized with a multi-prime (Amersham) labeled partial cDNA clone for mouse syndecan (PM-4) (Saunders et al., J. Cell Biol. 108:1547-1556 (1989)). After hybridization, the membrane was washed in 2×SSC and 1.0% SDS at 65° C. (high stringency conditions). For rehybridization with glyceraldehyde-3-phosphate-dehydrogenase (GAPDH; Fort et al., Nucleic Acid Res. 13:1431-1442 (1985)), the bound PM-4 probe was removed as recommended by the manufacturer of the filter (NEN).
Following incubation with FGF-2, syndecan MRNA was isolated and quantified. Control incubations without FGF-2 were also performed. Syndecan mRNA was isolated and quantified […] FGF-2 treatment following 6, 12, and 24 hr incubations. The quantification of syndecan mRNA production can be seen in FIG. 11a. GAPDH mRNA was used as a loading control. […] The enhancement appears to be maximal at about 6 hrs of FGF-2 incubation, and decreases thereafter. In the Figure, two individual exposures for each time point are presented.

[4] = test system: syndecan-1 expression in MCF-7 cells; assay: Syndecan mRNA expression in MCF-7 cells under estrogen and toremifene; assay type: cell-based, human; conditions: MCF-7 cells exposed to estrogen, then anti-estrogen treatment
Experimental: (§1) The steroid-responsive human breast cancer cell line MCF-7 was used to study the expression of human syndecan under different growth conditions regulated by estrogen and anti-estrogen. Cells were plated at a density of 1.2×10^6 cells/100 mm of plastic culture dish and grown as monolayer cultures in 10 ml per dish of phenol red-free DMEM medium with 5% dextran/charcoal treated fetal calf serum (DS-FCS), 2 mM L-glutamine and 3 μg/ml insulin. […] The cells were cultured for 6 days, and the media were changed every second day. For RNA extraction, cells were washed in situ with PBS and scraped from the plates in 4 M guanidine isothiocyanate.

MCF-7 cells = assay: Growth behavior of MCF-7 cells under estrogen and toremifene; assay type: cell-based, human; conditions: MCF-7 cells exposed to estrogen, then toremifene
Experimental: as §1

Row | Molecule | FiRE enhancer activation (CAT reporter activity) [1] | DNA synthesis / cell proliferation (125-IdU incorporation) (3T3NIH cells) | FiRE activation (CAT assay) [2] | also measured
1 | IGF: growth factor IGF1 tested at 10 ng/ml | no effect on enhancer activity | enhanced cell proliferation to a similar extent as FGF-2 |  | 
2 | CCCCCCCCCCCCCC(=O)O[C@@H]1[C@@H](C)[C@@]2(O)[C@@H](C=C(CO)C[C@]3(O)C(=O)C(C)=C[C@@H]23)[C@H]2C(C)(C)[C@]12OC(C)=O [TPA, 12-O-tetradecanoylphorpol-13-acetate] |  |  | none of the other compounds known to induce immediate early genes fos and jun and AP-1 driven promoters, were able to activate FiRE; also recorded: do not activate | 
3 | C=C1[C@@H](O)[C@@H]2O[C@]3(CC[C@H](/C=C/[C@@H](C)[C@@H]4CC(C)=C[C@@]5(O[C@H](C[C@@](C)(O)C(=O)O)CC[C@H]5O)O4)O3)CC[C@H]2O[C@@H]1[C@@H](O)C[C@H](C)[C@H]1O[C@@]2(CCCCO2)CC[C@H]1C [okadaic acid] |  |  | none of the other compounds known to induce immediate early genes fos and jun and AP-1 driven promoters, were able to activate FiRE | 
4 | FGF-1: human recombinant growth factor, FGF family member | did not activate or suppress; also recorded: lower effect | significant increase in DNA synthesis |  | FiRE activation [3]: failed to activate FiRE; also recorded: did not activate FiRE
5 | EGF: epidermal growth factor (NSDSECPLSHDGYCLHDGVCMYIEALDKYACNCVVGYIGERCQYRDLKWWELR; Epidermal growth factor; UniProt P01133 971-1023, looked up) | no significant enhancer activation; also recorded: no effect on enhancer activity | significant increase in DNA synthesis; also recorded: enhanced cell proliferation to a similar extent as FGF-2 |  | 
6 | TGF-β: transforming growth factor beta; porcine TGFβ1 | no significant enhancer activation | significant increase in DNA synthesis |  | activation of the syndecan-1 gene (syndecan-1 gene): cannot activate the syndecan-1 gene
7 | PDGF | no significant enhancer activation; also recorded: no effect on enhancer activity | significant increase in DNA synthesis; also recorded: enhanced cell proliferation to a similar extent as FGF-2 |  | FiRE activation [3]: failed to activate FiRE; also recorded: did not activate FiRE
8 | COC[C@@H]([C@H](O)[C@H](O)C(=O)NCC[C@H](C)c1nc(/C=C/C[C@@H]2O[C@]3(C[C@@H](O)[C@@H]2C)O[C@H]([C@H](C[C@H](O)[C@H](C)[C@H](O)[C@H](C)/C=C(C)/C(C)=C/C=C/C(C)=C\C#N)OC)[C@H](OP(=O)(O)O)C3(C)C)co1)N(C)C [calyculin A] |  |  | none of the other compounds known to induce immediate early genes fos and jun and AP-1 driven promoters, were able to activate FiRE | 
9 | [O]=[V]([O-])([O-])[O-] [orthovanadate] |  |  | resulted in activation of FiRE | 
10 | CN(C)CCOc1ccc(/C(=C(/CCCl)c2ccccc2)c2ccccc2)cc1 [toremifene] |  |  |  | syndecan-1 expression [4]: reverse their lowered syndecan expression; also recorded: restored syndecan-1 expression to levels close to that found in cells not exposed to estrogen; growth behavior of cells (MCF-7 cells): aided the cells in maintaining their normal growth behavior
